Values quoted from earlier work in patent US20140045801A1, “PRAMIPEXOLE TRANSDERMAL DELIVERY FOR SEVERE HEADACHES” (MYLAN INC., priority 2012, published 2014).

Details: free base; moderate lipophilicity

log P: 2.35
SMILES: CCCN[C@H]1CCc2nc(N)sc2C1 [Pramipexole free base, Pramipexole]
